The source made the active and inactive calls. No cut-off for these calls is given here.
Key:
Leishmania infantum [1] = experiment: Antileishmanial activity against Leishmania infantum amastigotes harboring iRFP gene infected BALB/c mouse splenocytes after 48 hrs by infrared imaging method; format: functional
[2] = Cytotoxicity against BALB/c mouse splenocytes assessed as cell viability after 48 hrs by alamar blue assay; format: toxicity, Splenocyte
[3] = Selectivity index, ratio of CC50 for BALB/c mouse splenocytes to IC50 for Leishmania infantum amastigotes harboring iRFP gene infected BALB/c mouse splenocytes; format: functional
Leishmania infantum [4] = experiment: (§1) Inhibition of Leishmania infantum recombinant topoisomerase 1B expressed in topoisomerase 1B- deficient Saccharomyces cerevisiae EKY3 assessed as decrease in relaxation of negatively supercoiled pSK DNA at 100 uM preincubated for 1 min followed by supercoiled pSK DNA addition measured after 5 mins by aggarose gel electrophoresis
Leishmania infantum [5] = experiment: as §1, with “5 mins” for “1 min”
Leishmania infantum [6] = experiment: as §1, with “15 mins” for “1 min”
[7] = as §1, with “DNA” for “DNA at 100 uM”, “15 mins” for “1 min”
Leishmania infantum [8] = experiment: Antileishmanial activity against Leishmania infantum BCN150 promastigotes harboring iRFP gene by infrared imaging method; format: functional
Homo sapiens [9] = species: Homo sapiens; experiment: as §1, with “human” for “Leishmania infantum”, “5 mins” for “1 min”
Homo sapiens [10] = species: Homo sapiens; experiment: as §1, with “human” for “Leishmania infantum”, “15 mins” for “1 min”
[11] = as §1, with “human” for “Leishmania infantum”, “DNA” for “DNA at 100 uM”, “15 mins” for “1 min”
Homo sapiens [12] = species: Homo sapiens; experiment: as §1, with “human” for “Leishmania infantum”

Row | Structure (SMILES) | IC50 (Leishmania infantum [1]) | CC50 at 48 h [2] | Ratio CC50/IC50 [3] | inhibition (Leishmania infantum [4]) | inhibition (Leishmania infantum [5]) | inhibition (Leishmania infantum [6]) | IC50 [7] | IC50 (Leishmania infantum [8]) | inhibition (Homo sapiens [9]) | inhibition (Homo sapiens [10]) | IC50 [11] | inhibition (Homo sapiens [12])
1 | COc1ccc(-c2nc3cccnc3c3c2Cc2ccccc2-3)cc1 | 5.8 µM | 116 µM | 20.1 | Active | Active | Active | 14.1 µM |  |  |  |  | 
2 | COc1cccc(-c2nc3cccnc3c3c2Cc2ccccc2-3)c1 | 93.3 µM | > 100 µM | >1.07 | Active | Active | Active | 29.5 µM | > 100 µM |  |  |  | 
3 | FC(F)(F)c1ccc([C@H]2Nc3cccnc3[C@H]3c4ccccc4C[C@H]32)cc1 (relative stereo) |  | 4.6 µM |  |  | Active | Active | 60.6 µM | 6.1 µM | Active | Active | 22.4 µM | 
4 | O=[N+]([O-])c1ccc(-c2nc3cccnc3c3c2Cc2ccccc2-3)cc1 | 68.3 µM | 88.1 µM | 1.29 | Active | Active | Active | 42.3 µM | > 100 µM | Active | Active | 31.6 µM | Active
5 | CCOC(=O)c1nc2cccnc2c2c1Cc1ccccc1-2 | 25.1 µM | 59.4 µM | 2.4 |  |  |  |  | 33.3 µM |  |  |  | 
6 | C[C@@H]1[C@H](O)[C@@H](C)/C=C/C=C/C=C/C=C/C=C/C=C/C=C/[C@H](O[C@@H]2O[C@H](C)[C@@H](O)[C@H](N)[C@@H]2O)C[C@@H]2O[C@](O)(C[C@@H](O)C[C@@H](O)[C@H](O)CC[C@@H](O)C[C@@H](O)CC(=O)O[C@H]1C)C[C@H](O)[C@H]2C(=O)O [AMPHOTERICIN B] | 0.32 µM | > 20 µM | >62.5 |  |  |  |  | 0.77 µM |  |  |  | 
7 | Fc1ccc([C@H]2Nc3cccnc3[C@H]3c4ccccc4C[C@H]32)cc1F (relative stereo) | 76.2 µM | 77.5 µM | 1.02 |  |  |  |  | 86.8 µM | Active |  | 24.4 µM | Active
8 | Fc1ccc(-c2nc3cccnc3c3c2Cc2ccccc2-3)cc1 | 0.74 µM | 50.5 µM | 68.2 | Active | Active | Active | 14.7 µM | 34.9 µM | Active |  | 87.7 µM | Active
9 | CCOC(=O)[C@H]1Nc2cccnc2[C@H]2c3ccccc3C[C@H]21 (relative stereo) | 78.5 µM | > 100 µM | >1.27 |  |  |  |  | 90.8 µM |  |  |  | 
10 | c1ccc(-c2nc3cccnc3c3c2Cc2ccccc2-3)cc1 | 63.3 µM | 90.2 µM | 1.43 |  |  |  |  | 70.1 µM |  |  |  | 
11 | COc1cccc([C@H]2Nc3cccnc3[C@H]3c4ccccc4C[C@H]32)c1 (relative stereo) | 0.54 µM | 35.8 µM | 66.3 | Active | Active |  | 21.8 µM | 5.4 µM |  |  |  | 
12 | c1ccc2c(c1)C[C@@H]1[C@H]2c2ncccc2N[C@@H]1c1ccncc1 (relative stereo) | 65.2 µM | 94.6 µM | 1.45 |  |  |  |  | 82.5 µM |  |  |  | 
13 | CC[C@@]1(O)C(=O)OCc2c1cc1n(c2=O)Cc2cc3ccccc3nc2-1 [CAMPTOTHECIN] | 0.03 µM | 0.62 µM | 20.7 | Active |  |  |  | 1.12 µM |  |  |  | Active
14 | Fc1ccc([C@H]2Nc3cccnc3[C@H]3c4ccccc4C[C@H]32)cc1 (relative stereo) | 2.97 µM | 57.9 µM | 19.5 |  | Active | Active | 49 µM | 9.8 µM |  |  |  | 
15 | CSc1ccc(-c2nc3cccnc3c3c2Cc2ccccc2-3)cc1 | 58.1 µM | 80.9 µM | 1.39 |  |  |  |  | 75.1 µM |  |  |  | 
16 | O=[N+]([O-])c1ccc([C@H]2Nc3cccnc3[C@H]3c4ccccc4C[C@H]32)cc1 (relative stereo) | 91.3 µM | > 100 µM | >1.09 |  | Active | Active | > 100 µM | > 100 µM | Active |  | 10.7 µM | Active
17 | FC(F)(F)c1ccc(-c2nc3cccnc3c3c2Cc2ccccc2-3)cc1 | 3.35 µM | 126 µM | 37.6 | Active | Active | Active | 23.6 µM | 84.7 µM | Active | Active | 27.4 µM | Active
18 | c1ccc([C@H]2Nc3cccnc3[C@H]3c4ccccc4C[C@H]32)cc1 | 65.1 µM | 94.3 µM | 1.45 |  | Active | Active | 45.2 µM | > 100 µM | Active |  | 46.5 µM | Active
19 | Fc1ccc([C@H]2Nc3cccnc3[C@H]3c4ccccc4C[C@H]32)c(F)c1 (relative stereo) | 0.67 µM | 32.1 µM | 47.9 | Active | Active |  | 41.8 µM | 3.7 µM |  |  |  | 
20 | Fc1ccc(-c2nc3cccnc3c3c2Cc2ccccc2-3)c(F)c1 | 6.07 µM | 76.9 µM | 12.7 |  |  |  |  |  |  |  |  | 
21 | C[C@H]1Nc2cccnc2[C@H]2c3ccccc3C[C@H]21 (relative stereo) | 89.4 µM | > 100 µM | >1.12 |  |  |  |  | > 100 µM |  |  |  | 
22 | c1ccc2c(c1)Cc1c(-c3ccncc3)nc3cccnc3c1-2 |  | 19.9 µM |  |  |  |  |  | 33.9 µM |  |  |  | 
23 | Fc1ccc(-c2nc3cccnc3c3c2Cc2ccccc2-3)cc1F | 78.2 µM | 74.2 µM | 0.95 |  |  |  |  | 86.1 µM |  |  |  | 
24 | c1ccc2c(c1)Cc1c(-c3ccc4ccccc4c3)nc3cccnc3c1-2 | 11.9 µM | 75.8 µM | 6.4 | Active | Active | Active | 28.1 µM | 34.6 µM | Active | Active | 83.4 µM | Active
25 | Fc1cccc([C@H]2Nc3cccnc3[C@H]3c4ccccc4C[C@H]32)c1 (relative stereo) | 94.7 µM | 85.3 µM | 0.9 |  |  |  |  | 89.9 µM |  |  |  | 
26 | Cc1ccc(-c2nc3cccnc3c3c2Cc2ccccc2-3)cc1 | 58.3 µM | 68.2 µM | 1.17 |  |  |  |  | 69.4 µM |  |  |  | 
